Measurements published in patent US20050074850A1, “Novel calcium channels and uses thereof” (Synta Pharmaceuticals Corp., priority 2003, published 2005).

Legend:
L-type calcium channel = assay: Whole-cell patch clamp of L-type currents in Jurkat T cells; assay type: cell-based, human
Experimental: In these patch clamp experiments, Jurkat cells that were grown in suspension cultures were washed once with standard external solution and plated directly onto the experimental bath chamber. Cells were kept in a standard modified Ringer's solution of the following composition (in mM): […] pipette-filling solutions for voltage-gated L-type channels contained (in mM): […], the above solution was replaced by an otherwise identical extracellular solution in which 10 μM Bay K was added to the bath. Intracellular pipette-filling solutions for voltage-gated L-type channels in some cases contained (in mM): Cs-glutamate 120, NaCl 8, MgCl2 1, MgATP 2, NaGTP 0.3, Cs-BAPTA 10, Hepes-CsOH 10, pH 7.2. Patch clamp experiments were performed in the tight-seal whole-cell configuration at 24±2° C. High-resolution current recordings were acquired by a computer-based patch clamp amplifier system (EPC-9, HEKA, Lambrecht, Germany). Patch pipettes had resistances between 2-4 MΩ after filling with the standard intracellular solution. For L-type current measurements the holding potential was −80 mV and the duration of the ramp was 100 ms for optimal L-type current size. All voltages were corrected for a liquid junction potential of 10 mV between external and internal solutions. Currents were filtered at 2.3 kHz and digitized at 100 μs intervals. Capacitive currents and series resistance were determined and corrected before each voltage ramp using the automatic capacitance compensation of the EPC-9. For ICRAC analysis, the very first ramps prior to current activation were digitally filtered at 2 kHz, pooled and used for leak-subtraction of all subsequent current records. The low-resolution temporal development of currents at a given potential was extracted from the leak-corrected individual ramp current records by measuring the current amplitudes at voltages of −80 mV or +80 mV, respectively. Similarly, one of the first ramps could be used as leak-subtraction for L-type currents, as the currents developed over a time course of 6-8 seconds, indicating recovery from inactivation. Where applicable, statistical errors of averaged data are given as means±S.E.M. with n determinations and statistical significance was assessed by Student's t-test.
For measurements of the L-type current with barium as the charge carrier, whole cell voltage-clamp recordings were performed using an Axopatch 200 amplifier (Axon Instruments) in a bath consisting of 135 mM choline Cl, 10 mM HEPES, 1 mM MgCl2 and 20 mM BaCl2, adjusted to a pH of 7.2 with CsOH. The internal solution consisted of 135 mM CsCl, 10 mM HEPES, 1 mM EGTA, 1 mM EDTA, and 4 mM Mg-ATP, adjusted to a pH of 7.2 with CsOH. Pclamp 8 software was used for data acquisition (Axon Instruments). For square pulse protocols, data were filtered at 2 kHz and sampled at 10 kHz. Patch electrodes were 3.8-4.4 MΩ when filled with internal solution. Leak subtraction was performed online using a P/-4 protocol. 75% series resistance compensation was used with a 10 μs lag. Statistical references indicate the mean±s.e. After forming the whole-cell patch, cells were lifted off the bottom of the dish and placed in front of an array of perfusion tubes made of 250 μm internal diameter quartz tubing (Polymicro Technologies, Phoenix, Ariz.) connected by Teflon tubing to glass reservoirs. […]

L-type channels [1] = assay: DM-BODIPY staining (flow cytometry) of siRNA-expressing Jurkat cells; assay type: cell-based, human
Experimental: (§1) This consensus sequence was used in the design of a sequence that would express an siRNA for stable expression of a hairpin loop containing the consensus sequence. The sequence was cloned into the psiRNA-hHlzeo vector (Invitrogen, San Diego, Calif.), the sequence was verified, and Jurkat cells were transfected with it. To select clones that were positive for expression of the hairpin, 400 micrograms/ml of zeocin was added 24 hours after transfection. […] Independent, individual clones were also generated in parallel. […] Thus, loss of L-type channel expression also correlates with decreased proliferation of Jurkat T cells.
First, control wild type (WT) and L-type siRNA-expressing (LT1) Jurkat T cells were stained with DM-BODIPY and analyzed by flow cytometry (Un indicates unstained cells). The LT1 cells were transfected with an siRNA sequence that targets the majority of L-type channels, and was designed based on sequence consensus of the human L-type calcium channels.

L-type channels [2] = assay: Calcium flux in siRNA-expressing Jurkat cells; assay type: cell-based, human; conditions: pool of zeocin-resistant Jurkat clones
Experimental: To assess the effect of expressing the mutant three-domain Ca(v)1.3 on calcium influx in cells, bulk calcium assays were performed using fura-2 (Molecular Probes) ratiometric imaging according to the manufacturer's recommendations. Fura-2 is a calcium-sensitive dye. When excited at short ultra-violet wavelengths (340 nm) the fluorescence of fura-2 increases with increasing calcium concentration, whereas fluorescence decreases with increasing calcium concentration at longer wavelengths (380 nm). By forming a ratio of successive images obtained at each wavelength, a measure of calcium concentration inside the fura-2 loaded cell is obtained.
as §1

Jurkat T cells = assay: Growth and cell numbers of siRNA-expressing Jurkat clones; assay type: cell-based, human
Experimental: as §1
Jurkat cells were stably transfected with each of the siRNA constructs and pools of clones of each were analyzed. RT-PCR was performed on samples from the clones to detect expression of Ca(v)1.3.

L-type calcium channels = assay: DM-BODIPY binding competition by flow cytometry in T cell leukemia cell lines; parameters: species or system human; conditions: ten-fold excess (S)-(−)-Bay K8644 over 1 μM DM-BODIPY; Jurkat, MOLT-4, CEM, Loucy, SUP-T1
Source text: In another method of determining whether a test compound is binding L-type channels, competition with DM-BODIPY dyes is used. Such assays employ DM-BODIPY (Molecular Probes, Eugene, […].), a dihydropyridine analog that is covalently attached to the BODIPY dye. The DM-BODIPY dye binds to L-type calcium channels on the cell surface and can be assessed by flow-cytometry. Accordingly, a test compound can be used in a competition assay with a DM-BODIPY dye. If the test compound is able to compete for binding of the DM-BODIPY dye to a cell expressing an LVCa(v) polypeptide, the test compound is a candidate compound for binding to the LVCa(v) polypeptide and being a modulator of the activity of that channel.
To ascertain the levels of L-type channel expression at the cell surface, cells were stained with an ester form of DM-BODIPY (Molecular Probes, Inc., Eugene, Oreg., catalog no. D-2183) at final concentration of 1 μM in PBS (phosphate buffered saline). Competition of DM-BODIPY binding was performed with a ten-fold excess (S)-(−)-Bay K8644 (Sigma-Aldrich). Analysis was performed using flow cytometry (Becton Dickinson). FIG. 22A illustrates the results of the DM-BODIPY binding experiments. […]

With CCCCCCCCCCCCCC(=O)O[C@@H]1[C@@H](C)[C@@]2(O)[C@@H](C=C(CO)C[C@]3(O)C(=O)C(C)=C[C@@H]23)[C@@H]2C(C)(C)[C@]12OC(C)=O [PMA, phorbol 12-myristate 13-acetate] the L-type current amplitude (L-type calcium channel; Jurkat cells pre-treated with PMA) was “significantly increased”.
For “LT1 (DNA AACTGTGAGCTGGACAAGAA; chemistry not given here)”, the “reduction in DM-BODIPY binding” value (L-type channels [1]; independent, individual Jurkat clones) was “approximately 90%”, the DM-BODIPY binding (L-type channels [1]; pool of zeocin-resistant Jurkat clones) was “decrease” and the “decrease of surface expression of L-type channels” value (L-type channels [1]; stable siRNA expression in Jurkat T cells, DM-BODIPY staining) was “about 90%”. For the same compound, the calcium flux (L-type channels [2]) was “marked decrease”, the growth of clones (Jurkat T cells; individual siRNA-expressing Jurkat clones) was “slow rate of growth” and the growth of clones (Jurkat T cells; individual siRNA-expressing Jurkat clones, listed as consensus sequence) was “grew very slowly”. The growth of clones (Jurkat T cells; pool of zeocin-resistant Jurkat clones, bulk culture) was “grew more slowly”.
For COC(=O)C1=C(C)NC(C)=C([N+](=O)[O-])[C@H]1c1ccccc1C(F)(F)F [BayK8644, (S)-(−)-Bay K8644], the “reversibility of agonist effect when washed out” value (L-type calcium channel; Jurkat cells) was “reversible”, the “cells with discernible DHPR (L-type calcium channel) currents” value (L-type calcium channel; Jurkat cells tested in the presence of BayK8644) was “Five of eleven” and the average current densities (L-type calcium channel; Jurkat cells, 10 μM BayK8644, calcium as charge carrier, n=5, +/− s.e.m.) was 1+/−0.3 pA/pF. For the same compound, the peak current increase (L-type calcium channel; Jurkat cells, in presence of the L-type agonist, calcium as charge carrier) was “five-fold” and the “DM-BODIPY binding competed by BayK8644” value (L-type calcium channels) was “competed”.
